PMC6277577, “In Salmonella enterica, OatA (Formerly YjgM) Uses O-Acetyl-Serine and Acetyl-CoA to Synthesize N,O-Diacetylserine, Which Upregulates Cysteine Biosynthesis” (Frontiers in Microbiology, 2018)

T1: OatA (formerly YjgM) (Salmonella enterica, UniProt Q08021)
T1 sequence (Q08021 1-167): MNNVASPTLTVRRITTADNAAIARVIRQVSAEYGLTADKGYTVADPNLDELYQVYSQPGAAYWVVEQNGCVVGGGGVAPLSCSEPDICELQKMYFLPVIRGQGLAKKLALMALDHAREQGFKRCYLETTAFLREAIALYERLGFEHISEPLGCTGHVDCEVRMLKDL


Columns and labels:
[1] = biological target: T1, OatA (formerly YjgM); assay: isothermal titration calorimetry with purified OatA; type: binding
[2] = substrate: CC(=O)OC[C@H](N)C(=O)O; assay: purified protein; type: biochemical, Salmonella enterica; settings: acetyl-CoA positively cooperative (h = […]); no OAS binding seen by ITC under conditions tested, suggesting AcCoA binds before OAS

Molecule | Kd [1] | Km [2]
CC(=O)SCCNC(=O)CCNC(=O)[C@H](O)C(C)(C)COP(=O)(O)OP(=O)(O)OC[C@H]1O[C@@H](n2cnc3c(N)ncnc32)[C@H](O)[C@@H]1OP(=O)(O)O [acetyl-CoA] | ~22 µM | 
OatA (formerly YjgM) (Salmonella enterica subsp. enterica serovar Typhimurium str. LT2) (protein) MNNVASPTLTVRRITTADNAAIARVIRQVSAEYGLTADKGYTVADPNLDELYQVYSQPGAAYWVVEQNGCVVGGGGVAPLSCSEPDICELQKMYFLPVIRGQGLAKKLALMALDHAREQGFKRCYLETTAFLREAIALYERLGFEHISEPLGCTGHVDCEVRMLKDL |  | 740 µM
